Test results from the supplement of paper PMC11061612.

How the values were obtained:
Carboplatin = compound: C1CC(C1)(C(=O)[O-])C(=O)[O-].N.N.[Pt+2] [Carboplatin]; conditions: max 10 µM
Procedure, shortened: (§1)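 Cancer cell lines were seeded into 1536-well plates in 7.5 μl medium (DMEM/F12 or RPMI, 10% FBS), held 24 hours at 37°C and 5% CO2, and dosed for 72 hours with final DMSO typically 0.2%. Luminescence from CellTiter-Glo 2.0, scaled between blank-well and DMSO-well means, served as viability. The single-agent IC50 was obtained from dose-response fits with a non-linear mixed effects model, each fit being a two-parameter logistic curve.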

AZD5363 = compound: C1CN(CCC1(C(=O)N[C@@H](CCO)C2=CC=C(C=C2)Cl)N)C3=NC=NC4=C3C=CN4 [AZD5363]; conditions: max 10 µM
Procedure, shortened: as §1

AZD1775 = compound: C=CCn1c(=O)c2cnc(Nc3ccc(N4CCN(C)CC4)cc3)nc2n1-c1cccc(C(C)(C)O)n1 [AZD1775]; conditions: max 3 µM
Procedure, shortened: as §1

Trametinib = compound: CC(=O)Nc1cccc(-n2c(=O)n(C3CC3)c(=O)c3c(Nc4ccc(I)cc4F)n(C)c(=O)c(C)c32)c1 [Trametinib]; conditions: max 1 µM
Procedure, shortened: as §1

Paclitaxel = compound: CC(=O)O[C@H]1C(=O)[C@@]2(C)[C@H]([C@H](OC(=O)c3ccccc3)[C@]3(O)C[C@H](OC(=O)[C@H](O)[C@@H](NC(=O)c4ccccc4)c4ccccc4)C(C)=C1C3(C)C)[C@]1(OC(C)=O)CO[C@@H]1C[C@@H]2O [Paclitaxel]; conditions: max 3 µM
Procedure, shortened: as §1

Palbociclib = compound: CC(=O)c1c(C)c2cnc(Nc3ccc(N4CCNCC4)cn3)nc2n(C2CCCC2)c1=O [Palbociclib]; conditions: max 10 µM
Procedure, shortened: as §1

AZD1390 = compound: CC(C)n1c(=O)n(C)c2cnc3cc(F)c(-c4ccc(OCCCN5CCCCC5)nc4)cc3c21 [AZD1390]; conditions: max 0.3 µM
Procedure, shortened: as §1

Venetoclax = compound: CC1(C)CCC(CN2CCN(c3ccc(C(=O)NS(=O)(=O)c4ccc(NCC5CCOCC5)c([N+](=O)[O-])c4)c(Oc4cnc5[nH]ccc5c4)c3)CC2)=C(c2ccc(Cl)cc2)C1 [Venetoclax]; conditions: max 1 µM
Procedure, shortened: as §1

Dasatinib = compound: CC1=C(C(=CC=C1)Cl)NC(=O)C2=CN=C(S2)NC3=CC(=NC(=N3)C)N4CCN(CC4)CCO [Dasatinib]; conditions: max 2 µM
Procedure, shortened: as §1

SG3199 = compound: CC1=CN2[C@@H](C1)C=NC3=CC(=C(C=C3C2=O)OC)OCCCCCOC4=C(C=C5C(=C4)N=C[C@@H]6CC(=CN6C5=O)C)OC [SG3199]; conditions: max 0.001 µM
Procedure, shortened: as §1

AZD2811 = compound: CCN(CCO)CCCOc1ccc2c(Nc3cc(CC(=O)Nc4cccc(F)c4)[nH]n3)ncnc2c1 [AZD2811]; conditions: max 1 µM
Procedure, shortened: as §1

SN-38 = compound: CCc1c2c(nc3ccc(O)cc13)-c1cc3c(c(=O)n1C2)COC(=O)[C@]3(O)CC [SN-38]; conditions: max 0.3 µM
Procedure, shortened: as §1

AZD0156 = compound: CN(C)CCCOc1ccc(-c2ccc3ncc4c(c3c2)n(C2CCOCC2)c(=O)n4C)cn1 [AZD0156]; conditions: max 3 µM
Procedure, shortened: as §1

AZD4320 = compound: CN(CC[C@H](CSC1=CC=CC=C1)NC2=C(C=C(C=C2)S(=O)(=O)NC(=O)C3=CC=C(C=C3)N4CCC(CC4)[C@H](C5=CC=CC=C5C6=CC=C(C=C6)Cl)O)S(=O)(=O)C(F)(F)F)CCO [AZD4320]; conditions: max 1 µM
Procedure, shortened: as §1

Alisertib = compound: COc1cc(Nc2ncc3c(n2)-c2ccc(Cl)cc2C(c2c(F)cccc2OC)=NC3)ccc1C(=O)O [Alisertib]; conditions: max 10 µM
Procedure, shortened: as §1

Etoposide = compound: COc1cc([C@@H]2c3cc4c(cc3[C@@H](O[C@@H]3O[C@@H]5CO[C@@H](C)O[C@H]5[C@H](O)[C@H]3O)[C@H]3COC(=O)[C@H]23)OCO4)cc(OC)c1O [Etoposide]; conditions: max 10 µM
Procedure, shortened: as §1

Gefitinib = compound: COc1cc2ncnc(Nc3ccc(F)c(Cl)c3)c2cc1OCCCN1CCOCC1 [Gefitinib]; conditions: max 10 µM
Procedure, shortened: as §1

Prexasertib = compound: COc1cccc(OCCCN)c1-c1cc(Nc2cnc(C#N)cn2)n[nH]1 [Prexasertib]; conditions: max 1 µM
Procedure, shortened: as §1

Doxorubicin = compound: COc1cccc2c1C(=O)c1c(O)c3c(c(O)c1C2=O)C[C@@](O)(C(=O)CO)C[C@@H]3O[C@H]1C[C@H](N)[C@H](O)[C@H](C)O1 [Doxorubicin]; conditions: max 1 µM
Procedure, shortened: as §1

AZD5153 = compound: COc1nnc2ccc(N3CCC(c4ccc(OCCN5CCN(C)C(=O)[C@H]5C)cc4)CC3)nn12 [AZD5153]; conditions: max 1 µM
Procedure, shortened: as §1

Lapatinib = compound: CS(=O)(=O)CCNCc1ccc(-c2ccc3ncnc(Nc4ccc(OCc5cccc(F)c5)c(Cl)c4)c3c2)o1 [Lapatinib]; conditions: max 10 µM
Procedure, shortened: as §1

AZD8186 = compound: C[C@@H](Nc1cc(F)cc(F)c1)c1cc(C(=O)N(C)C)cc2c(=O)cc(N3CCOCC3)oc12 [AZD8186]; conditions: max 10 µM
Procedure, shortened: as §1

Crizotinib = compound: C[C@@H](Oc1cc(-c2cnn(C3CCNCC3)c2)cnc1N)c1c(Cl)ccc(F)c1Cl [Crizotinib]; conditions: max 10 µM
Procedure, shortened: as §1

Savolitinib = compound: C[C@@H](c1ccc2nccn2c1)n1nnc2ncc(-c3cnn(C)c3)nc21 [Savolitinib]; conditions: max 1 µM
Procedure, shortened: as §1

AZD6738 = compound: C[C@@H]1COCCN1C2=NC(=NC(=C2)C3(CC3)[S@](=N)(=O)C)C4=C5C=CNC5=NC=C4 [AZD6738]; conditions: max 10 µM
Procedure, shortened: as §1

AZD5991 = compound: Cc1c2c(nn1C)CSCc1cc(n(C)n1)CSc1cc(c3ccccc3c1)OCCCc1c(C(=O)O)n(C)c3c-2c(Cl)ccc13 [AZD5991]; conditions: max 1 µM
Procedure, shortened: as §1

AZD7648 = compound: Cc1cc2ncnn2cc1Nc1ncc2c(n1)n(C1CCOCC1)c(=O)n2C [AZD7648]; conditions: max 10 µM
Procedure, shortened: as §1

Taselisib = compound: Cc1nc(-c2cn3c(n2)-c2ccc(-c4cnn(C(C)(C)C(N)=O)c4)cc2OCC3)n(C(C)C)n1 [Taselisib]; conditions: max 10 µM
Procedure, shortened: as §1

Selumetinib = compound: Cn1cnc2c(F)c(Nc3ccc(Br)cc3Cl)c(C(=O)NOCCO)cc21 [Selumetinib]; conditions: max 10 µM
Procedure, shortened: as §1

SRA737 = compound: N#Cc1cnc(Nc2cc(NC[C@H]3CNCCO3)c(C(F)(F)F)cn2)cn1 [SRA737]; conditions: max 10 µM
Procedure, shortened: as §1

MK-2206 = compound: NC1(c2ccc(-c3nc4ccn5c(=O)[nH]nc5c4cc3-c3ccccc3)cc2)CCC1 [MK-2206]; conditions: max 10 µM
Procedure, shortened: as §1

Gemcitabine = compound: Nc1ccn([C@@H]2O[C@H](CO)[C@@H](O)C2(F)F)c(=O)n1 [Gemcitabine]; conditions: max 0.3 µM
Procedure, shortened: as §1

[1] = compound: O=C(Nc1ccc2[nH]nc(-c3ccncc3)c2c1)[C@@H]1CCN(CC(=O)N2CCN(c3ccc(-c4ncccn4)cc3)CC2)C1; conditions: max 5 µM
Procedure, shortened: as §1

Olaparib = compound: O=C(c1cc(Cc2n[nH]c(=O)c3ccccc23)ccc1F)N1CCN(C(=O)C2CC2)CC1 [Olaparib]; conditions: max 10 µM
Procedure, shortened: as §1

5-Fluorouracil = compound: O=c1[nH]cc(F)c(=O)[nH]1 [5-Fluorouracil]; conditions: max 20 µM
Procedure, shortened: as §1

Row | Cell Line | IC50, cell viability 72 h (Carboplatin) | IC50, cell viability 72 h (AZD5363) | IC50, cell viability 72 h (AZD1775) | IC50, cell viability 72 h (Trametinib) | IC50, cell viability 72 h (Paclitaxel) | IC50, cell viability 72 h (Palbociclib) | IC50, cell viability 72 h (AZD1390) | IC50, cell viability 72 h (Venetoclax) | IC50, cell viability 72 h (Dasatinib) | IC50, cell viability 72 h (SG3199) | IC50, cell viability 72 h (AZD2811) | IC50, cell viability 72 h (SN-38) | IC50, cell viability 72 h (AZD0156) | IC50, cell viability 72 h (AZD4320) | IC50, cell viability 72 h (Alisertib) | IC50, cell viability 72 h (Etoposide) | IC50, cell viability 72 h (Gefitinib) | IC50, cell viability 72 h (Prexasertib) | IC50, cell viability 72 h (Doxorubicin) | IC50, cell viability 72 h (AZD5153) | IC50, cell viability 72 h (Lapatinib) | IC50, cell viability 72 h (AZD8186) | IC50, cell viability 72 h (Crizotinib) | IC50, cell viability 72 h (Savolitinib) | IC50, cell viability 72 h (AZD6738) | IC50, cell viability 72 h (AZD5991) | IC50, cell viability 72 h (AZD7648) | IC50, cell viability 72 h (Taselisib) | IC50, cell viability 72 h (Selumetinib) | IC50, cell viability 72 h (SRA737) | IC50, cell viability 72 h (MK-2206) | IC50, cell viability 72 h (Gemcitabine) | IC50, cell viability 72 h [1] | IC50, cell viability 72 h (Olaparib) | IC50, cell viability 72 h (5-Fluorouracil)
1 | LS-1034 (Colorectal Carcinoma) | > 10000 nM | > 10000 nM | 918 nM | 52 nM | 590 nM | > 10000 nM | > 300 nM | > 1000 nM | > 2000 nM | > 1 nM | > 1000 nM | > 300 nM | > 3000 nM | > 1000 nM | > 10000 nM | > 10000 nM | > 10000 nM | 238 nM | > 1000 nM | 850 nM | > 10000 nM | > 10000 nM | > 10000 nM | > 1000 nM | 6050 nM | > 1000 nM | > 10000 nM | > 10000 nM | 2420 nM | > 10000 nM | > 10000 nM | 120 nM | > 5000 nM | > 10000 nM | > 20000 nM
2 | C-33-A (Cervical Carcinoma) | > 10000 nM | 2640 nM | 206 nM | 938 nM | 19 nM | > 10000 nM | > 300 nM | > 1000 nM | 781 nM | > 1 nM | > 1000 nM | 20.1 nM | > 3000 nM | > 1000 nM | > 10000 nM | 909 nM | 8590 nM | 52.8 nM | 217 nM | > 1000 nM | > 10000 nM | > 10000 nM | > 10000 nM | > 1000 nM | 1420 nM | > 1000 nM | > 10000 nM | > 10000 nM | > 10000 nM | > 10000 nM | > 10000 nM | 25.6 nM | > 5000 nM | > 10000 nM | > 20000 nM
3 | RCC-JW (Kidney Carcinoma) | > 10000 nM | > 10000 nM | 1600 nM | > 1000 nM | 109 nM | > 10000 nM | > 300 nM | > 1000 nM | 85.1 nM | > 1 nM | > 1000 nM | 157 nM | > 3000 nM | 895 nM | > 10000 nM | > 10000 nM | > 10000 nM | > 1000 nM | > 1000 nM | > 1000 nM | 7530 nM | 5130 nM | > 10000 nM | > 1000 nM | > 10000 nM | > 1000 nM | > 10000 nM | > 10000 nM | > 10000 nM | > 10000 nM | > 10000 nM | 61.7 nM | > 5000 nM | > 10000 nM | > 20000 nM
